According to patent US20050176775A1, “Substituted pyridinones” (priority 2003, published 2005):

Tests used:
human p38 kinase alpha = biological target: T1, human p38 kinase alpha (Homo sapiens, UniProt Q16539); assay: p38 alpha kinase assay (PHAS-I / 32P-ATP format or EGFRP / 33P-ATP format); type: biochemical; conditions: inhibition of activated human p38 kinase alpha; the text does not say which of the two in vitro formats was used
T1 construct: made in house; host or cells: E. coli DH10B
Experimental: The ability of compounds to inhibit human p38 kinase alpha was evaluated using two in vitro assay methods. In the first method, activated human p38 kinase alpha phosphorylates a biotinylated substrate, PHAS-I (phosphorylated heat and acid stable protein-insulin inducible), in the presence of gamma ^32P-ATP (^32P-ATP). PHAS-I was biotinylated prior to the assay and provides a means of capturing the substrate, which is phosphorylated during the assay. p38 Kinase was activated by MKK6. Compounds were tested in 10 fold serial dilutions over the range of 100 μM to 0.001 μM using 1% DMSO. Each concentration of inhibitor was tested in triplicate.
All reactions were carried out in 96 well polypropylene plates. Each reaction well contained 25 mM HEPES pH 7.5, 10 mM magnesium acetate and 50 μM unlabeled ATP. […] Activated human p38 kinase alpha was used at 1 μg per 50 μl reaction volume representing a final concentration of 0.3 μM. […]
Following incubation, 20 μl of reaction mixture was transferred to a high capacity streptavidin coated filter plate (SAM-streptavidin-matrix, Promega) prewetted with phosphate buffered saline. […] The plates were sealed and counted.
Compounds were tested in 10 fold serial dilutions over the range of 100 μM to 0.001 μM in 1% DMSO. […] 150 μl of Microscint 40 was then added to each well of the Microlite plate, and the plate was sealed, mixed, and counted.

T1 sequence (Q16539 whole entry): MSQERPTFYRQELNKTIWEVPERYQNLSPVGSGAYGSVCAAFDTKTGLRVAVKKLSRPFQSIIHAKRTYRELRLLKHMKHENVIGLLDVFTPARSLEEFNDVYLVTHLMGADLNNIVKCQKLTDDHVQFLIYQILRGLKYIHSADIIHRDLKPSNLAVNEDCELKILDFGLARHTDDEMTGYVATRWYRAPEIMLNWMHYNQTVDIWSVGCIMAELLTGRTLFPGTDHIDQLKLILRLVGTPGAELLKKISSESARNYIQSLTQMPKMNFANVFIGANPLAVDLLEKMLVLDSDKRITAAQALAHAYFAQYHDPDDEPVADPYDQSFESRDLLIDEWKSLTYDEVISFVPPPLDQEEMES

IC50 (human p38 kinase alpha) [µM]	melting point [°C]	Compound
25 to 100		Cc1c(/C=N/O)c(OCc2ccc(F)cc2F)c(Br)c(=O)n1-c1c(F)cccc1F [Example 565, 5-bromo-4-[(2,4-difluorobenzyl)oxy]-1-(2,6-difluorophenyl)-2-methyl-6-oxo-1,6-dihydropyridine-3-carbaldehyde Oxime]
< 1		Cc1ccc(C(N)=O)cc1-n1c(C)cc(OCc2ccc(F)cc2F)c(Br)c1=O (single isomer, unassigned) [Example 736, (+)-3-[3-bromo-4-[(2,4-difluorobenzyl)oxy]-6-methyl-2-oxopyridin-1(2H)-yl]-4-methylbenzamide]
	95 to 98	CCOC(=O)Cc1cccc(Cn2ccc(OCc3ccc(F)cc3F)c(Br)c2=O)c1 [Example 127, Ethyl {3-[3-Bromo-4-(2,4-difluorobenzyloxy)-2-oxo-2H-pyridin-1-ylmethyl]-phenyl}acetate]

More lines, now with the values behind:

Compound	IC50 (human p38 kinase alpha) [µM]	melting point [°C]
O=c1c(Cl)c(OCc2ccc(F)cc2F)ccn1Cc1ccc2c(c1)CCN2 [Example 88, 3-chloro-4-(2,4-difluorobenzyloxy)-1-(2,3-dihydro-1H-indol-5-ylmethyl)-1H-pyridin-2-one]		137 to 139
O=c1cc(OCc2ccccc2Cl)ccn1Cc1ccccc1 [Example 42, 1-benzyl-4-[(2-chlorobenzyl)oxy]pyridin-2(1H)-one]		124.6 to 125
O=c1c(Cl)c(OCc2ccc(F)cc2F)ccn1Cc1cccc2c1CCNC2 [Example 85, 3-chloro-4-(2,4-difluorobenzyloxy)-1-(1,2,3,4-tetrahydroisoquinolin-5-ylmethyl)-1H-pyridin-2-one]		180 to 184
CS(=O)(=O)c1ccc(Cn2ccc(OCc3ccc(F)cc3F)c(Cl)c2=O)cc1 [Example 82, 3-chloro-4-(2,4-difluorobenzyloxy)-1-[(4-methanesulfonyl)benzyl]-1H-pyridin-2-one]		223 to 225
